Measured values reported in patent US20020022722A1, “4'-C-ethynyl pyrimidine nucleoside compounds” (priority 1999, published 2002).
Values after ≈ are worked out from the molar mass of the structure shown. Like-named read-outs stand apart in the source and are kept apart here.

Legend:
[1] = result in words; cited from earlier work
HIV-1 (IIIb strain) = assay: Anti-HIV activity, MTT method using MT-4 cells; type: cell-based; settings: Human immunodeficiency virus 1, IIIB
Experimental: (2) Anti-human Immunodeficiency Virus (HIV) Activity
(§1) 1) MTT Method Using MT-4 Cells
(§2) 1. A test agent (100 μl) is diluted on a 96-well microplate. MT-4 cells infected with HIV-1 (IIIb strain; 100 TCID50) and non-infected MT-4 cells are added to the microplate such that the number of cells in each well becomes 10,000. The cells are cultured at 37° C. for five days.
(§3) 2. MTT (20 μl, 7.5 mg/ml) is added to each well, and the cells are further cultured for 2-3 hours.
(§4) 3. The cultured medium (120 μl) is sampled, and MTT terminating solution (isopropanol containing 4% Triton X-100 and 0.04N HCl) is added to the sample. The mixture is stirred to form formazane, which is dissolved. The absorbance at 540 nm of the solution is measured. Since the absorbance is proportional to the number of viable cells, the test agent concentration at which a half value of the absorbance is measured in a test using infected MT-4 cells represents EC50, whereas the test agent concentration at which a half value of the absorbance is measured in a test using non-infected MT-4 cells represents CC50.

[2] = Cytotoxicity, MTT method using non-infected MT-4 cells; type: cell-based; settings: human
Experimental: as §1, §2, §3, §4

HIV wild strain: WT = assay: MAGI assay using HeLa CD4/LTR-beta-Gal cells, WT; type: cell-based
Experimental: (§5) 2) MAGI Assay Using HeLa CD4/LTR-beta-Gal Cells
(§6) 1. HeLa CD4/LTR-beta-Gal cells are added to 96 wells such that the number of cells in each well is 10,000. After 12-24 hours, the culture medium is removed, and a diluted test agent (100 μl) is added.
(§7) 2. A variety of HIV strains (wild strain: WT, drug-resistant strain: MDR, M184V, NL4-3, 104pre, and C; each equivalent to 50 TCID50) are added, and the cells are further cultured for 48 hours.
(§8) 3. The cells are fixed for five minutes using PBS containing 1% formaldehyde and 0.2% glutaraldehyde.
(§9) 4. After the fixed cells are washed with PBS three times, the cells are stained with 0.4 mg/ml X-Gal for one hour, and the number of blue-stained cells of each well is counted under a transmission stereoscopic microscope. The test agent concentration at which blue-stained cells decrease to 50% and 90% in number represents EC50 and EC90, respectively.

[3] = test system: HIV drug-resistant strain: MDR; assay: MAGI assay using HeLa CD4/LTR-beta-Gal cells, MDR; type: cell-based; settings: Human immunodeficiency virus 1, HeLa
Experimental: as §5, §6, §7, §8, §9

[4] = test system: HIV drug-resistant strain: M184V; assay: MAGI assay using HeLa CD4/LTR-beta-Gal cells, M184V; type: cell-based; settings: Human immunodeficiency virus 1, HeLa
Experimental: as §5, §6, §7, §8, §9

[5] = Cytotoxicity by use of HeLa CD4/LTR-beta-Gal cells; type: cell-based; settings: human
Experimental: (§10) 5. In a manner similar to that employed in the MTT method, cytotoxicity is measured by use of HeLa CD4/LTR-beta-Gal cells.

HIV-1 IIIb strain = settings: MT-4 cells, result in words; cited from earlier work
HIV strain NL4-3 = assay: MAGI assay using HeLa CD4/LTR-beta-Gal cells, NL4-3; type: cell-based
Experimental: as §5, §6, §7, §8, §9

HIV strain 104pre = assay: MAGI assay using HeLa CD4/LTR-beta-Gal cells, 104pre; type: cell-based
Experimental: as §5, §6, §7, §8, §9

HIV strain C = assay: MAGI assay using HeLa CD4/LTR-beta-Gal cells, C; type: cell-based; settings: Human immunodeficiency virus 1, HeLa; for EC90: read-out: HIV C (EC90, μM); for EC50: read-out: HIV C EC50, μM
Experimental: as §5, §6, §7, §8, §9

[6] = test system: HeLa CD4/LTR-beta-Gal cells; assay: Cytotoxicity by use of HeLa CD4/LTR-beta-Gal cells; type: cell-based; settings: Table 6
Experimental: as §10

multi-PI resistant HIV-1 = settings: result in words; cited from earlier work
[7] = MT4, Table 2, read-out: HIV-1 (EC50, μg/ml)
[8] = non-infected MT-4 cells, Table 2, read-out: Cytotoxicity (CC50, μg/ml)
[9] = Human immunodeficiency virus 1, HeLa, read-out: HIV WT (EC50, μg/ml), Table 5
[10] = read-out: HIV MDR (EC50, μg/ml), Table 5
[11] = read-out: HIV M184V (EC50, μg/ml), Table 5
[12] = Table 5, read-out: Cytotoxicity (CC50, μg/ml)
[13] = MT4, Table 4, read-out: HIV-1 (EC50)
[14] = MT4, read-out: HIV-1 (EC50, μg/ml), Table 2
[15] = MT4, read-out: HIV-1 (EC50, μg/ml), Table 3
[16] = Human immunodeficiency virus 1, HeLa, read-out: HIV WT (EC50, μg/ml), Table 6
[17] = read-out: HIV MDR (EC50, μg/ml), Table 6
[18] = read-out: HIV M184V (EC50, μg/ml), Table 6
[19] = MT4, Table 3, read-out: HIV-1 (EC50, μg/ml)
[20] = non-infected MT-4 cells, Table 3, read-out: Cytotoxicity (CC50, μg/ml)
[21] = Table 6, read-out: Cytotoxicity (CC50, μg/ml)

SMILES: C#C[C@]1(CO)O[C@@H](n2cc(C)c(=O)[nH]c2=O)[C@H](O)[C@@H]1O [1-(4-C-ethynyl-β-D-ribo-pentofuranosyl)thymine]
- biological activities such as antiviral and antitumor activities [1]: no such biological activities have been observed

SMILES: C#C[C@]1(CO)O[C@@H](n2cc(C)c(=O)[nH]c2=O)C[C@@H]1O [4′-C-ethynyl thymidine, 4′-C-ethynylthymidine, reference compound]
- EC50 (HIV-1 (IIIb strain); [7]): 0.22 µg/mL
- CC50 at 5 days [2, 8]: > 100 µg/mL
- EC50 (HIV wild strain: WT; [9]): 0.097 µg/mL (≈ 0.364 µM)
- EC50 [3, 10]: 0.033 µg/mL (≈ 0.124 µM)
- EC50 [4, 11]: 0.049 µg/mL (≈ 0.184 µM)
- CC50 [5, 12]: > 100 µg/mL
- anti-HIV activity compared with AZT (HIV-1 IIIb strain): weaker than that of AZT

SMILES: C#C[C@]1(CO)O[C@@H](n2ccc(N)nc2=O)[C@H](O)[C@@H]1O [4′-C-ethynylcytidine]
- biological activities such as antiviral and antitumor activities [1]: no such biological activities have been observed

SMILES: C#C[C@]1(CO)O[C@@H](n2ccc(=O)[nH]c2=O)[C@H](O)[C@@H]1O [4′-C-ethynyluridine]
- biological activities such as antiviral and antitumor activities [1]: no such biological activities have been observed

SMILES: Cc1cn([C@H]2C[C@H](N=[N+]=[N-])[C@@H](CO)O2)c(=O)[nH]c1=O [AZT, zidovudine, reference compound]
- EC50 (HIV-1 (IIIb strain); [13]): 55 nM
- EC50 (HIV-1 (IIIb strain); [14]): 0.0016 µg/mL
- EC50 (HIV-1 (IIIb strain); [15]): 0.0011 µg/mL
- CC50 at 5 days ([2]; Table 2, read-out: Cytotoxicity (CC50, μg/ml)): > 0.27 µg/mL
- CC50 at 5 days ([2]; Table 3, read-out: Cytotoxicity (CC50, μg/ml)): 9.08 µg/mL
- EC50 (HIV wild strain: WT; [9]): 0.0059 µg/mL (≈ 0.0221 µM)
- EC50 (HIV wild strain: WT; [16]): 0.0027 µg/mL (≈ 0.0101 µM)
- EC50 [3, 10]: 4.1 µg/mL (≈ 15.3 µM)
- EC50 [3, 17]: 5.34 µg/mL (≈ 20 µM)
- EC50 [4, 11]: 0.0083 µg/mL (≈ 0.0311 µM)
- EC50 [4, 18]: 0.0013 µg/mL (≈ 0.00486 µM)
- EC90 (HIV strain NL4-3; Human immunodeficiency virus 1, NL43, Table 7, value in parentheses, HeLa CD4/LTR-beta-Gal cells, read-out: HIV NL-43 (EC90)): 4.96 µM
- EC50 (HIV strain NL4-3; Human immunodeficiency virus 1, NL43, Table 7, HeLa CD4/LTR-beta-Gal cells, read-out: HIV NL-43 EC50): 0.109 µM
- EC90 (HIV strain 104pre; Human immunodeficiency virus 1, Table 7, value in parentheses, HeLa CD4/LTR-beta-Gal cells, read-out: HIV 104 pre (EC90)): 9.66 µM
- EC50 (HIV strain 104pre; Human immunodeficiency virus 1, Table 7, HeLa CD4/LTR-beta-Gal cells, read-out: HIV 104 pre EC50): 0.059 µM
- EC90 (HIV strain C): > 10 µM
- EC50 (HIV strain C): 3.27 µM
- CC50 [5, 12]: > 26.7 µg/mL
- Cytotoxicity (CC50, μg/ml) [6]: >26.7 µg/mL

SMILES: C#C[C@]1(CO)O[C@@H](n2ccc(N)nc2=O)C[C@@H]1O [Compound 13, 4′-C-ethynyl-2′-deoxycytidine]
- EC50 (HIV-1 (IIIb strain); [7]): 0.0012 µg/mL
- EC50 (HIV wild strain: WT; Human immunodeficiency virus 1, Table 5, read-out: HIV WT (EC50, μg/ml)): 0.00031 µg/mL (≈ 0.00123 µM)
- EC50 [3, 10]: 0.0003 µg/mL (≈ 0.00119 µM)
- EC50 [4, 11]: 0.00054 µg/mL (≈ 0.00215 µM)

SMILES: C#C[C@]1(CO)O[C@@H](n2ccc(N)nc2=O)[C@@H](O)[C@@H]1O [Compound 19, 1-(4-C-ethynyl-β-D-arabino-pentofuranosyl)cytosine]
- EC50 (HIV-1 (IIIb strain); [14]): 0.0115 µg/mL
- CC50 at 5 days [2, 8]: 0.53 µg/mL
- EC50 (HIV wild strain: WT; [9]): 0.0019 µg/mL (≈ 0.00711 µM)
- EC50 [3, 10]: 0.021 µg/mL (≈ 0.0786 µM)
- EC50 [4, 11]: 0.19 µg/mL (≈ 0.711 µM)
- CC50 [5, 12]: > 100 µg/mL

SMILES: C#C[C@]1(CO)O[C@@H](n2cnc3c(N)ncnc32)CC1O (stereo partly drawn) [Compound 23, 9-(2-deoxy-4-C-ethynyl-β-D-ribo-pentofuranosyl)adenine]
- EC50 (HIV-1 (IIIb strain); [19]): 0.0027 µg/mL
- CC50 at 5 days [2, 20]: 4.4 µg/mL
- EC50 (HIV wild strain: WT; [16]): 0.0012 µg/mL (≈ 0.00436 µM)
- EC50 [3, 17]: 0.0017 µg/mL (≈ 0.00618 µM)
- EC50 [4, 18]: 0.013 µg/mL (≈ 0.0472 µM)
- CC50 [5, 21]: > 100 µg/mL

SMILES: C#C[C@]1(CO)O[C@@H](n2cnc3c(N)nc(N)nc32)CC1O (stereo partly drawn) [Compound 28, 9-(2-deoxy-4-C-ethynyl-β-D-ribo-pentofuranosyl)-2,6-diaminopurine]
- EC50 (HIV-1 (IIIb strain); [15]): 0.0001 µg/mL
- CC50 at 5 days [2, 20]: 0.26 µg/mL
- EC50 (HIV wild strain: WT; [16]): 0.00028 µg/mL (≈ 0.000965 µM)
- EC50 [3, 17]: 0.00029 µg/mL (≈ 0.000999 µM)
- EC50 [4, 18]: 0.0017 µg/mL (≈ 0.00586 µM)
- CC50 [5, 21]: 2.7 µg/mL (≈ 9.3 µM)

SMILES: C#C[C@]1(CO)O[C@@H](n2cnc3c(=O)[nH]cnc32)CC1O (stereo partly drawn) [Compound 29, 9-(2-deoxy-4-C-ethynyl-β-D-ribo-pentofuranosyl)hypoxanthine]
- EC50 (HIV-1 (IIIb strain); [19]): 0.037 µg/mL
- CC50 at 5 days [2, 20]: 38 µg/mL
- EC50 (HIV wild strain: WT; [16]): 0.22 µg/mL (≈ 0.796 µM)
- EC50 [3, 17]: 0.14 µg/mL (≈ 0.507 µM)
- EC50 [4, 18]: 4.6 µg/mL (≈ 16.7 µM)
- CC50 [5, 21]: > 100 µg/mL

SMILES: C#C[C@]1(CO)O[C@@H](n2cnc3c(=O)[nH]c(N)nc32)CC1O (stereo partly drawn) [Compound 30, 9-(2-deoxy4-C-ethynyl-β-D-ribo-pentofuranosyl)guanine]
- EC50 (HIV-1 (IIIb strain); [15]): 0.00044 µg/mL
- CC50 at 5 days [2, 20]: 0.41 µg/mL
- EC50 (HIV wild strain: WT; [16]): 0.002 µg/mL (≈ 0.00687 µM)
- EC50 [3, 17]: 0.0014 µg/mL (≈ 0.00481 µM)
- EC50 [4, 18]: 0.0023 µg/mL (≈ 0.0079 µM)
- CC50 [5, 21]: 15.2 µg/mL (≈ 52.2 µM)

SMILES: C#C[C@]1(CO)O[C@@H](n2cc(F)c(N)nc2=O)C[C@@H]1O [Compound 37, 4′-C-ethynyl-2′-deoxy-5-fluorocytidine]
- EC50 (HIV-1 (IIIb strain); [13]): 33 nM
- CC50 at 5 days ([2]; non-infected MT-4 cells, Table 4, read-out: Cytotoxicity (CC50)): > 500000 nM
- EC90 (HIV strain NL4-3; Human immunodeficiency virus 1, NL43, HeLa, read-out: HIV NL-43 (EC90, μM)): 0.25 µM
- EC50 (HIV strain NL4-3; Human immunodeficiency virus 1, NL43, HeLa, read-out: HIV NL-43 EC50, μM): 0.021 µM
- EC90 (HIV strain 104pre; Human immunodeficiency virus 1, HeLa, read-out: HIV 104 pre (EC90, μM)): 0.19 µM
- EC50 (HIV strain 104pre; Human immunodeficiency virus 1, HeLa, read-out: HIV 104 pre EC50, μM): 0.022 µM
- EC90 (HIV strain C): 3.44 µM
- EC50 (HIV strain C): 0.122 µM

SMILES: Cc1ccccc1CNC(=O)[C@H]1N(C(=O)[C@@H](O)[C@H](Cc2ccccc2)NC(=O)c2cccc(O)c2C)CSC1(C)C [JE-2147]
- antiviral activity against a multi-PI resistant HIV-1 (multi-PI resistant HIV-1): potent antiviral activity
